Values belong to the compound of their own block, whether it stands above or below them.
Experiments:
[1] = biological target: T1, human recombinant adrenergic α1D receptor (Homo sapiens, UniProt P25100); test: Adrenergic α1D radioligand binding assay ([3H]Prazosin); conditions: 0.1 μM compound; 0.1 µM
T1 construct: expressed in transfected cells; host or cells: HEK-293 cells
T1 sequence (P25100 1-572): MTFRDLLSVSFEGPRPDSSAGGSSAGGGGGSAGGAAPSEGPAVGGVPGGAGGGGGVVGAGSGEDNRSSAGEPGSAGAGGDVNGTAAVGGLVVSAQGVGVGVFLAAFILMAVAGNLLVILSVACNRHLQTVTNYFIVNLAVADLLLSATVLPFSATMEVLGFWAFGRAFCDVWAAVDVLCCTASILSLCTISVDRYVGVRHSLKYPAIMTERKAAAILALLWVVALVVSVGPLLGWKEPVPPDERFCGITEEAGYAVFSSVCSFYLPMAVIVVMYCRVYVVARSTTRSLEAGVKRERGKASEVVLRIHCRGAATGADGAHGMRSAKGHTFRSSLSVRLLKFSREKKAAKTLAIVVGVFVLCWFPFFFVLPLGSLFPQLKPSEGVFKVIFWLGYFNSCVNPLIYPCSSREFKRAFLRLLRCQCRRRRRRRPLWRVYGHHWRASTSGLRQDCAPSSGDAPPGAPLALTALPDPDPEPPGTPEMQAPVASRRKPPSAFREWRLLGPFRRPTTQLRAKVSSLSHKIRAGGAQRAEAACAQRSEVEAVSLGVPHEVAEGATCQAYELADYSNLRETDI
Procedure: To evaluate in radioligand binding assays the activity of compounds of the invention, human recombinant adrenergic α1D receptor expressed in human embryonic kidney (HEK-293) cells (Kenny, B. et al, Br. J. Pharmacol. 115(6):981, 1995) in a 50 mM Tris-HCl buffer, pH 7.4, was used. Compounds were incubated with 0.6 nM [3H]Prazosin for 60 min at 25° C. Non-specific binding was estimated in the presence of 10 μM phentolamine. Receptor proteins were filtered and washed, the filters were then counted to determine [3H]Prazosin specifically bound. Compounds were screened at 1 μM or lower, using 1% DMSO as vehicle. Biochemical assay results are presented as the percent inhibition of specific binding in Tables B1A-B1D.

[2] = biological target: T2, human recombinant adrenergic α2B receptor (Homo sapiens, UniProt P18089); test: Adrenergic α2B radioligand binding assay ([3H]Rauwolscine)
T2 construct: expressed in transfected cells; host or cells: CHO-K1 cells
T2 sequence (P18089 1-450): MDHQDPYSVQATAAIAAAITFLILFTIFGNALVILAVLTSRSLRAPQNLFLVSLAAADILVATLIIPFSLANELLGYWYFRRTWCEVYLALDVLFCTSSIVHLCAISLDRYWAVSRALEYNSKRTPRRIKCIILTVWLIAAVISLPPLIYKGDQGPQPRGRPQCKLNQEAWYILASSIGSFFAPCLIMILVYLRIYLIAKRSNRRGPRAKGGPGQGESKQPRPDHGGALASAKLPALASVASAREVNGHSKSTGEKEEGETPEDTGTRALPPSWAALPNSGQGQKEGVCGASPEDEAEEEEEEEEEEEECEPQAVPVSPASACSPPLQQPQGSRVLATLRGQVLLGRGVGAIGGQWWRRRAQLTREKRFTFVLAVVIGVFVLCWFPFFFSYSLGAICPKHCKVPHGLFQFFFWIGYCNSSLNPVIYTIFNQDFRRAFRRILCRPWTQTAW
Procedure: To evaluate in radioligand binding assays the activity of compounds of the invention, human recombinant adrenergic α2B receptor expressed in Chinese hamster ovary (CHO) K1 cells (Uhlen, S. et al, Eur. J. Pharmacol. 343(1):93, 1998) in a modified Tris-HCl buffer (50 mM Tris-HCl, pH 7.4, 12.5 mM MgCl2, 1 mM EDTA, 0.2% BSA) was used. Compounds of the invention were incubated with 2.5 nM [3H]Rauwolscine for 60 min at 25° C. Non-specific binding was estimated in the presence of 10 μM Prazosin. Receptor proteins were filtered and washed, the filters were then counted to determine [3H]Rauwolscine specifically bound. Compounds were screened at 1 μM or lower, using 1% DMSO as vehicle. Compounds of the invention were tested in this biochemical assay and percent inhibition of specific binding was determined. Biochemical assay results are presented as the percent inhibition of specific binding in Tables B1A-B1D.

[3] = biological target: T3, rat adrenergic α1B receptor obtained from Wistar Rat liver (Rattus norvegicus, UniProt P15823); test: Adrenergic α1B radioligand binding assay ([3H]Prazosin); conditions: 0.1 μM compound
T3 construct: rat adrenergic α1B receptor obtained from Wistar Rat liver; from tissue; host or cells: Wistar rat liver
T3 sequence (P15823 1-515): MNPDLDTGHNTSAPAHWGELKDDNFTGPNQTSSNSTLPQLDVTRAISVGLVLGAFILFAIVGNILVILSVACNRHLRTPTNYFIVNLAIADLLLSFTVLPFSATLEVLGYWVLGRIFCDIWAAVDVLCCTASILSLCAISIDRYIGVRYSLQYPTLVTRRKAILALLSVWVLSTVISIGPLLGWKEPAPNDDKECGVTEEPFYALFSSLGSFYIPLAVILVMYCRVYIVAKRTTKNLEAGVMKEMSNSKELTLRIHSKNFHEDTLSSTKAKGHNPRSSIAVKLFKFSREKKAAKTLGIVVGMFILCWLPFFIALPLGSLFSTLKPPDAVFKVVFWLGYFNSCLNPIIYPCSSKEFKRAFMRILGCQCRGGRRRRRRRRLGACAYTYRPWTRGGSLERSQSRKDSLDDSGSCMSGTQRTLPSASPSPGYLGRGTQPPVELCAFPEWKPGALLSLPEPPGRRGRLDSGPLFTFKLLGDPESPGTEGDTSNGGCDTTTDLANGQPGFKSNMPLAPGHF
Procedure: To evaluate in radioligand binding assays the activity of compounds of the invention, rat adrenergic α1B receptor obtained from Wistar Rat liver (Garcia-S'ainz, J. et al, Biochem. Biophys. Res. Commun. 186:760, 1992; Michel, A. et al, Br. J. Pharmacol. 98:883, 1989) in a modified Tris-HCl buffer (50 mM Tris-HCl buffer, pH 7.4, 0.5 mM EDTA) was used. Compounds of the invention were incubated with 0.25 nM [^3H]Prazosin for 60 min at 25° C. Non-specific binding was estimated in the presence of 10 μM phentolamine. Receptor proteins were filtered and washed, the filters were then counted to determine [^3H]Prazosin specifically bound. Compounds were screened at 1 μM or lower, using 1% DMSO as vehicle. Compounds of the invention were tested in this biochemical assay and percent inhibition of specific binding was determined. Biochemical assay results are presented as the percent inhibition of specific binding in Tables B1A-B1D.

[4] = biological target: T4, human recombinant adrenergic α2A receptor (Homo sapiens, UniProt P08913); test: Adrenergic α2A radioligand binding assay ([3H]MK-912); conditions: 0.1 μM compound
T4 construct: expressed in transfected cells; host or cells: insect Sf9 cells
T4 sequence (P08913 1-465): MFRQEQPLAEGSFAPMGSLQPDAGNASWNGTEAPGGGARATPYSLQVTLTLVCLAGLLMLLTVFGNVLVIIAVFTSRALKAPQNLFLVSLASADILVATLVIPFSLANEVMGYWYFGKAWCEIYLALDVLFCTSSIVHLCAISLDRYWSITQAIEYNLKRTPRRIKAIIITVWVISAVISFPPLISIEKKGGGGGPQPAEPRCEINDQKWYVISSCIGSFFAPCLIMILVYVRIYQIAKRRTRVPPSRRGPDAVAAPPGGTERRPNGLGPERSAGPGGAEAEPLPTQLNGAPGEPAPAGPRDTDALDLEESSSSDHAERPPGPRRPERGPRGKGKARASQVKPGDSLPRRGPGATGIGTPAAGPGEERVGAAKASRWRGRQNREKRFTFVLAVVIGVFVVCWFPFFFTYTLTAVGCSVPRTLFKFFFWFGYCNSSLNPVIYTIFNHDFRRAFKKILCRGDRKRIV
Procedure: To evaluate in radioligand binding assays the activity of compounds of the invention, human recombinant adrenergic α2A receptor expressed in insect Sf9 cells (Uhlen, S. et al, J. Pharmacol. Exp. Ther. 271:1558, 1994) in a modified Tris-HCl buffer (50 mM Tris-HCl, pH 7.4, 12.5 mM MgCl2, 2 mM EDTA) was used. Compounds of invention were incubated with 1 nM [^3H]MK-912 for 60 min at 25° C. MK912 was (2S-trans)-1,3,4,5′,6,6′,7,12b-octahydro-1′,3′-dimethyl-spiro[2H-benzofuro[2,3-a]quinolizine-2,4′(1′H)-pyrimidin]-2′(3′H)-one hydrochloride Non-specific binding was estimated in the presence of 10 μM WB-4101 (2-(2,6-Dimethoxyphenoxyethyl)aminomethyl-1,4-benzodioxane hydrochloride). Receptor proteins were filtered and washed, the filters were then counted to determine [^3H]MK-912 specifically bound. Compounds were screened at 1 μM or lower, using 1% DMSO as vehicle. Compounds of the invention were tested in this biochemical assay and percent inhibition of specific binding was determined. Biochemical assay results are presented as the percent inhibition of specific binding in Tables B1A-B1D.

[5] = system: SH-SY5Y cells; test: Cell viability assay (MTS reduction) against 4-Br-A23187 challenge; type: cell-based; conditions: compound 10 nM, 4-Br-A23187 (2 μM) for 24 h; for Relative Cytoprotective capacity: Control = 100, Vehicle = 0; for viability at 0.01 µM: Homo sapiens, SH-SY5Y, Control = 100, Vehicle = 0, read-out: Relative Cytoprotective capacity
Procedure: SH-SY5Y cells cultured in DMEM/F12 media supplemented with 10% FBS were seeded in 96-well microplates at 150,000 cells/cm^2. After 24 h, cells were depleted from FBS and kept in culture for 24 h before the experiment. A stock solution was prepared by dissolving the calcium ionophore 4-Br-A23187 (Calbiochem Cat. N^o 100107) in DMSO at 25 mM. Cells were then treated with 4-Br-A23187 (2 μM), hydrogen peroxide (300 μM) or the mitochondrial toxin rotenone (25 μM) in the presence of vehicle or Compound of the Invention for 24 h. Cell death was determined by measurements of LDH release according to the Cytotoxicity Detection KitPlus (Roche, Mannheim, Germany). Cell viability was determined by measuring the capacity of cells to metabolize MTS tetrazolium (MTS) according to the Cytotoxicity Detection KitPlus (Roche, Mannheim, Germany) and MTS reduction was assessed by the CellTiter 96® AQueous One Solution Cell Proliferation assay (Promega Corporation, Madison, Wis., USA). Compounds were screened at 10 nM, using DMSO as vehicle. Assay results for the experiments with Br-A23187 were presented as the MTS reduction capacity (cell viability) of untreated cells (control), 4-Br-A23187-treated cells (vehicle), and co-incubation of Br-A23187 with Compounds of the Invention treated cells and using […] (FCCP) at 10 μM for 30 min as a control. This assay assesses the ability of the test compounds to protect against cell death that was mediated by mitochondrial dysfunction. In the assay, the calcium ionophore 4-Br-A23187 was used to challenge the cells, causing calcium levels to rise in mitochondria, which leads to depolarization and cell death. Test compounds were assessed for their ability to prevent cell death in response to challenge with 4-Br-A23187.

Percentage inhibition of ligand binding, Adrenergic α1D [1]: 2% | Percentage inhibition of ligand binding, Adrenergic α2B ([2]; 0.1 μM compound, 0.1 µM): 16% | Percentage inhibition of ligand binding, Adrenergic α1B ([3]; 0.1 µM): 12% | Percentage inhibition of ligand binding, Adrenergic α2A ([4]; 0.1 µM): 6%
Structure (SMILES): Cc1cc2c3c(c1)c1c(n3CC(C)(c3ccc(C)nc3)OC2C)CCN(C)C1 (stereo not drawn) [B164]

Structure (SMILES): Cc1ccc2c(c1)c1c(n2C)C(C)(CCc2nc(-c3ccccc3)cs2)CN(C)C1 (stereo not drawn) [C48]
Relative Cytoprotective capacity [5]: 52.14

Structure (SMILES): Cc1ccc2[nH]c3c(c2c1)CN(C)CC3(C)CCc1ccc(C)nc1 (stereo not drawn) [C46]
Relative Cytoprotective capacity [5]: −0.04527

Structure (SMILES): Cc1ccc2c(c1)c1c3n2CC(c2ccc(F)cc2)CC3(C)CN(C)C1 (stereo not drawn) [D2]
viability at 0.01 µM [5]: 38.4%

inhibition at 0.03 µM ([2]; 0.03 μM compound, read-out: Percentage inhibition of ligand binding, Adrenergic α2B): 31% | inhibition at 0.1 µM ([3]; read-out: Percentage inhibition of ligand binding, Adrenergic α1B): -3% | inhibition at 0.1 µM ([4]; read-out: Percentage inhibition of ligand binding, Adrenergic α2A): -5%
Structure (SMILES): Cc1cc(CC(O)c2ccncc2)c2c(c1)c1c(n2C)CCN(C)C1 (stereo not drawn) [A44]

Structure (SMILES): Cc1ccc2c(c1)c1c3n2CC(c2ccncc2)OC(C)CC3(C)CN(C)C1 (stereo not drawn) [D8]
viability at 0.01 µM [5]: 73.1%

Structure (SMILES): Cc1ccc2c(c1)c1c(n2C)C(C)(CCc2ccc(C)nc2)CN(C)C1 (stereo not drawn) [C45]
Relative Cytoprotective capacity [5]: 4.348
